Experiments:
IRAK4 [1] = target: T1, IRAK4 (Homo sapiens (Human), UniProt Q9NWZ3); experiment: IRAK4 Degradation HiBiT Assay; conditions: multiple runs, HiBiT-tagged Jurkat cells, 4 hrs; for Dmax: Jurkat, read-out: Cellular IRAK4 HiBiT: Dmax, Table 5; for DC50: read-out: Cellular IRAK4 HiBiT: DC50, Table 5
Target sequence in this assay (Q9NWZ3 whole entry): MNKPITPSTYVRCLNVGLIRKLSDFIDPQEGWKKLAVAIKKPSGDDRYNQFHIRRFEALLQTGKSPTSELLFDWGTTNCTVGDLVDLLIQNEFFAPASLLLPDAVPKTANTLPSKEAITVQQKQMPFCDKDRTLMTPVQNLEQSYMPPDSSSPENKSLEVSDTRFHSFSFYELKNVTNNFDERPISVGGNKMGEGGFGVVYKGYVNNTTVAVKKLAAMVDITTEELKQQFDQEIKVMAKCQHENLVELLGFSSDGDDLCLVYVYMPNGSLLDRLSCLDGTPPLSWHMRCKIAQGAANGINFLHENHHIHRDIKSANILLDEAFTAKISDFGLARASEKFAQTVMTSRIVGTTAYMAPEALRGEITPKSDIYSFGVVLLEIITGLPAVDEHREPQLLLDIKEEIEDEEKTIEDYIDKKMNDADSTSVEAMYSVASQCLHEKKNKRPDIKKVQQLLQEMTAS

IRAK4 [2] = target: T1, IRAK4; experiment: IRAK4 Biochemical HTRF Kinase Assay; conditions: Table 5; multiple runs; read-out: IRAK4 HTRF biochemical: IC50
How it was run: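 HTRF KinEASE STK S1 format measuring IRAK4 phosphorylation of biotinylated peptide; reaction solution of 5 μM STK-S1, 10 mM ATP, 10 mM MgCl2 added (stock, to 10 μl final), 90 min at ambient temperature, detection 60 min. IC50 from sixteen-point duplicate curves by non-linear regression.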
Target sequence in this assay (Q9NWZ3 whole entry, species assumed): as the sequence (Q9NWZ3 whole entry) above

SMILES | Dmax (IRAK4 [1]) [%] | DC50 (IRAK4 [1]) [nM] | IC50 (IRAK4 [2]) [nM]
CNc1cc(-c2ccc3cc(C#N)cnn23)ncc1-c1nnc([C@H]2CC[C@@H](NC(=O)CCCCCNc3ccc4c(c3)C(=O)N(C3CCC(=O)NC3=O)C4=O)CC2)s1 (stereo partly drawn) [Example 114, N-((1s,4s)-4-(5-(6-(3-cyanopyrrolo[1,2-b]pyridazin-7-yl)-4-(methylamino)pyridin-3-yl)-1,3,4-thiadiazol-2-yl)cyclohexyl)-6-((2-(2,6-dioxopiperidin-3-yl)-1,3-dioxoisoindolin-5-yl)amino)hexanamide] | 82 | 72.6 | 2.9
CNc1cc(-c2ccc3cc(C#N)cnn23)ncc1-c1nnc(N2CCN(C(=O)CN3CCN(c4ccc5c(c4)C(=O)N(C4CCC(=O)NC4=O)C5=O)CC3)CC2)s1 (stereo not drawn) [Example 94, 7-(5-(5-(4-(2-(4-(2-(2,6-dioxopiperidin-3-yl)-1,3-dioxoisoindolin-5-yl)piperazin-1-yl)acetyl)piperazin-1-yl)-1,3,4-thiadiazol-2-yl)-4-(methylamino)pyridin-2-yl)pyrrolo[1,2-b]pyridazine-3-carbonitrile] | 113 | 321 | 0.6

Reference: patent US12528814B2, “Bifunctional degraders of interleukin-1 receptor-associated kinases and therapeutic use thereof” (NURIX THERAPEUTICS, INC., priority 2020, dated 2026)
